Results reported in patent US9821067B2, “Lipopeptides for delivery of nucleic acids” (Marina Biotech, Inc., priority 2007, dated 2017).
Primed or numbered codes have the meaning given here. No end group written: not given here. C20 = lipophilic group with a 20-carbon chain; PEG27′ = polyethylene glycol, 27 units; cysteamide = C-terminal cysteamide; C16 = N-terminal C16 lipid; C18 = N-terminal C18 lipid; C18″ = C18 lipid

Legend:
[1] = tested on: LacZ gene (bacterial galactosidase) in 9L/LacZ cells; experiment: In vitro assay for LacZ gene expression knockdown in 9L cells
Procedure: 9L/LacZ is a rat gliosarcoma cell line stably expressing the LacZ gene that encodes bacterial galactosidase. LacZ gene knockdown measurements can be used as a primary activity-based in vitro assay for interfering RNA delivery formulations.
For LacZ gene knockdown measurements, 9L/LacZ cells were transfected with an RNAi formulation, and a β-galactosidase assay was performed on cells harvested at day 3 post transfection. An additional assay was performed to quantify protein concentration.
9L/LacZ cells were plated at 8000 cells/well (96-well) and incubated overnight in medium. Confluency was about 15-20% at the time of transfection. Transfection complex was prepared by adding an interfering RNA to OptiMEM™ medium and vortexing, separately adding a delivery formulation to OptiMEM™ medium and vortexing, and finally mixing the interfering RNA in medium with the delivery formulation in medium to make the transfection complex. The medium for incubated cells was replaced with fresh no-serum media (OptiMEM™ without serum) and transfection complex was added to each well. Cells were incubated 5 hrs, then after the addition of 100 microliters complete medium (DMEM plus 10% fetal bovine serum) were incubated overnight at 37° C. and 5% CO2. The next day, 24 hours after transfection, the medium was changed to fresh complete medium and the cells were incubated another 48 hrs at 37° C. and 5% CO2.
For LacZ gene knockdown, the harvested 9L/LacZ cells were washed in PBS, lysed in M-PER™ Reagent (Pierce), and incubated at room temperature for 15 minutes. Lysate was taken from each well for protein assay with a Micro BCA kit (Pierce, Thermo Fisher Scientific) and β-gal assay with All-in-One™ β-Galactosidase Assay Reagent (Pierce).

[2] = tested on: Cyclophilin B (PPIB) gene expression in A549 cells; experiment: In vitro assay for PPIB gene expression knockdown in A549 cells; format: cell-based, human; details: for % KD (vs QNeg) A549/PPIB: A549 cells, PPIB mRNA by RT-PCR 24 hours after transfection; for knockdown in the A549/PPIB assay: as compared to both Qneg and vehicle (data for vehicle not shown)
Procedure: Cyclophilin B (PPIB) gene expression knockdown was measured in A549 human alveolar basal epithelial cells. For PPIB gene knockdown measurements, A549 cells were transfected with an interfering RNA formulation, total RNA prepared 24 hours after transfection, and PPIB mRNA assayed by RT-PCR. QRT-PCR of 36B4 (acidic ribosomal phosphoprotein PO) mRNA expression was performed for normalization.
Confluency was about 50% at the time of transfection.
For PPIB gene knockdown cells were lysed and RNA prepared (Invisorb RNA Cell HTS 96-Kit/C, Invitek, Berlin, or RNeasy 96 Kit, Qiagen). Quantitative RT-PCR was performed using One-Step qRT-PCR kit (Invitrogen) on a DNA Engine Opticon2 thermal cycler (BioRad).

[3] = N:P ratio 2, β-galactosidase assay day 3 post transfection
[4] = N:P ratio 4, β-galactosidase assay day 3 post transfection

For “Ac-GALFLGFLGAAGSTMGAWSQPKSKRKV-amide (Ac-GALFLGFLGAAGSTMGAWSQPKSKRKV-NH2) [acetylated peptide amide]”, the “% KD (vs QNeg) L/9lacZ” value [1, 3] was −0.4%, the “% KD (vs QNeg) L/9lacZ” value [1, 4] was −1.6% and the “% KD (vs QNeg) A549/PPIB” value ([2]; N:P ratio 2) was −8.1%. The “% KD (vs QNeg) A549/PPIB” value ([2]; N:P ratio 4) was −3.7%.
With “Ac-GALFLAFLAAALSLMGLWSQPKKKRKV-Cysteamide (Ac-GALFLAFLAAALSLMGLWSQPKKKRKV-cysteamide) [acetylated peptide cysteamide]” the “% KD (vs QNeg) L/9lacZ” value [1, 3] was 29.1% and the “% KD (vs QNeg) A549/PPIB” value ([2]; N:P ratio 2) was 20.5%.
“Ac-LIRLWSHLIHIWFQNRRLKWKKK-amide (Ac-LIRLWSHLIHIWFQNRRLKWKKK-NH2) [acetylated peptide amide]” was tested, and the “% KD (vs QNeg) L/9lacZ” value [1, 3] was −19.9%, the “% KD (vs QNeg) L/9lacZ” value [1, 4] was −4.5% and the “% KD (vs QNeg) A549/PPIB” value ([2]; N:P ratio 2) was 8.7%. For the same substance, the “% KD (vs QNeg) A549/PPIB” value ([2]; N:P ratio 4) was −28.8%.
With “(C18)-HHHHRRRRRRRR-Cysteamide (C18-HHHHRRRRRRRR-cysteamide) [lipopeptide; (CX) is the number of carbons in the lipophilic group]” the “% KD (vs QNeg) L/9lacZ” value [1, 3] was −0.8% and the “% KD (vs QNeg) A549/PPIB” value ([2]; N:P ratio 2) was 15.3%.
In the case of “(C18)-HHHHHKHHHKKKHKHKKK-cysteamide (C18-HHHHHKHHHKKKHKHKKK-cysteamide) [lipopeptide with C18 lipophilic group]”, the “% KD (vs QNeg) L/9lacZ” value [1, 3] is reported as −11.3%, the “% KD (vs QNeg) L/9lacZ” value [1, 4] is reported as −19.4% and the “% KD (vs QNeg) A549/PPIB” value ([2]; N:P ratio 2) is reported as 25.5%. For the same substance, the “% KD (vs QNeg) A549/PPIB” value ([2]; N:P ratio 4) was 21.6% and the “knockdown in the A549/PPIB assay” value [2] was “significant knockdown”.
“Ac-GALFLAFLAAALSLMGLWSQPKSKRKV-Cysteamide (Ac-GALFLAFLAAALSLMGLWSQPKSKRKV-cysteamide) [acetylated peptide cysteamide]” was tested, and the “% KD (vs QNeg) L/9lacZ” value [1, 3] was 29.5%, the “% KD (vs QNeg) L/9lacZ” value [1, 4] was −9.3% and the “% KD (vs QNeg) A549/PPIB” value ([2]; N:P ratio 2) was 15.5%. For the same substance, the “% KD (vs QNeg) A549/PPIB” value ([2]; N:P ratio 4) was 16.0%.
In the case of “(C20)-(H)8(R)8(H)8K-NH-(C20) (C20-HHHHHHHHRRRRRRRRHHHHHHHHK(C20)) [lipopeptide with two 20 carbon lipophilic groups]”, the “% KD (vs QNeg) L/9lacZ” value [1, 3] is reported as 60.1%, the “% KD (vs QNeg) L/9lacZ” value [1, 4] is reported as 57.5% and the “% KD (vs QNeg) A549/PPIB” value ([2]; N:P ratio 2) is reported as 29.7%. The “% KD (vs QNeg) A549/PPIB” value ([2]; N:P ratio 4) was 65.8% and the “knockdown in the A549/PPIB assay” value [2] was “significant knockdown”.
“(C18)-PEG27-HHHHHHHHRRRRRRRR-amide ({C18″-PEG27′}-HHHHHHHHRRRRRRRR-NH2) [lipopeptide with C18 lipophilic group and PEG27]” was tested, and the “% KD (vs QNeg) L/9lacZ” value [1, 3] was 9.2%, the “% KD (vs QNeg) L/9lacZ” value [1, 4] was −16.1% and the “% KD (vs QNeg) A549/PPIB” value ([2]; N:P ratio 2) was 30.6%. For the same substance, the “% KD (vs QNeg) A549/PPIB” value ([2]; N:P ratio 4) was 7.4%.
“(C16)-HHHHHKHHHKKKHKHKKK-Cysteamide (C16-HHHHHKHHHKKKHKHKKK-cysteamide) [lipopeptide with C16 lipophilic group]” was tested, and the “% KD (vs QNeg) L/9lacZ” value [1, 3] was 12.0%, the “% KD (vs QNeg) L/9lacZ” value [1, 4] was 12.4% and the “% KD (vs QNeg) A549/PPIB” value ([2]; N:P ratio 2) was 14.7%. The “% KD (vs QNeg) A549/PPIB” value ([2]; N:P ratio 4) was −19.8%.
